This assay deals with BDF1 mice, B16 melanoma ip, median survival T/C. Kind of assay: NCI In Vivo Anticancer Drug Screen. Data for tumor model B16 Melanoma (intraperitoneal) in B6D2F1 (BDF1) mice. Conditions: endpoint: median survival time, higher = longer survival. In outline:
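In this screen, activity was judged from survival or tumor size in treated versus vehicle-treated tumor-bearing mice, reported as T/C.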

The mark [1] stands for this setting: dose: 100.0 mg/kg/injection, schedule: Q01DX009 (ip), vehicle: Klucel (hydroxypropylcellulose) (HPC).
[2] abbreviates: dose: 200.0 mg/kg/injection, schedule: Q01DX009 (ip), vehicle: Klucel (hydroxypropylcellulose) (HPC).
Where [3] appears, read: dose: 400.0 mg/kg/injection, schedule: Q01DX009 (ip), vehicle: Klucel (hydroxypropylcellulose) (HPC).
[4] abbreviates: dose: 12.5 mg/kg/injection, schedule: Q01DX009 (ip), vehicle: saline.
[5] abbreviates: dose: 25.0 mg/kg/injection, schedule: Q01DX009 (ip), vehicle: saline.
The mark [6] stands for this setting: dose: 50.0 mg/kg/injection, schedule: Q01DX009 (ip), vehicle: saline.
Where [7] appears, read: dose: 50.0 mg/kg/injection, schedule: Q01DX009 (ip), vehicle: saline with Tween-80.

Values joined by “and” are separate entries in the source; they are usually repeats but may differ in a detail not shown here. Equal values may be shown once. Toxic doses and inconclusive results are not listed.

Drawing on PubChem BioAssay AID192 (DTP/NCI, 2004), this text covers T/C for 18 compounds.

On to `CCCCCCCC(=O)OCC(=O)[C@]1(O)Cc2c(O)c3c(c(O)c2[C@@H](OC2CC(N)C(O)C(C)O2)C1)C(=O)c1c(OC)cccc1C3=O` (stereo partly specified), for which the T/C by setting is: (dose: 0.25 mg/kg/injection, schedule: Q01DX009 (ip), vehicle: saline with Tween-80) 176 % of control; (dose: 0.5 mg/kg/injection, schedule: Q01DX009 (ip), vehicle: saline with Tween-80) 222 % of control; (dose: 1.0 mg/kg/injection, schedule: Q01DX009 (ip), vehicle: saline with Tween-80) 151 % of control and 212 % of control; (dose: 1.25 mg/kg/injection, schedule: Q01DX001 (ip), vehicle: water) 170 % of control; (dose: 2.0 mg/kg/injection, schedule: Q01DX009 (ip), vehicle: saline with Tween-80) 150 % of control and 274 % of control; (dose: 2.5 mg/kg/injection, schedule: Q01DX001 (ip), vehicle: water) 117 % of control (2×) and 214 % of control. For the same compound, the T/C (dose: 5.0 mg/kg/injection, schedule: Q01DX001 (ip), vehicle: water) was 97 % of control and 252 % of control; the T/C (dose: 10.0 mg/kg/injection, schedule: Q01DX001 (ip), vehicle: water) was 227 % of control; the T/C (dose: 20.0 mg/kg/injection, schedule: Q01DX001 (ip), vehicle: water) is 122 % of control; the T/C (dose: 1440.0 micrograms/kg/injection, schedule: Q01DX004 (ip), vehicle: other) is 115 % of control; the T/C (dose: 2400.0 micrograms/kg/injection, schedule: Q01DX004 (ip), vehicle: other) was 110 % of control; the T/C (dose: 4000.0 micrograms/kg/injection, schedule: Q01DX004 (ip), vehicle: other) was 122 % of control.

As to `CCCCCCCCCC(=O)CCC`, the T/C is 100 % of control under setting [1], 111 % of control under setting [2] and 95 % of control under setting [3].

`NC(N)=NC1CCCC1`: the T/C under setting [4] was 97 % of control, the T/C under setting [5] is 114 % of control and the T/C under setting [6] was 98 % of control.

With `NNC(=O)c1ccncc1`, the T/C was 111 % of control under setting [4]; 98 % of control (dose: 16.0 mg/kg/injection, schedule: Q01DX009 (ip), vehicle: saline); 100 % of control under setting [5]; 98 % of control (dose: 32.0 mg/kg/injection, schedule: Q01DX009 (ip), vehicle: saline); 105 % of control under setting [6]; 100 % of control (dose: 64.0 mg/kg/injection, schedule: Q01DX009 (ip), vehicle: saline). The T/C reads like this: (dose: 100.0 mg/kg/injection, schedule: Q01DX009 (ip), vehicle: saline) 111 % of control; (dose: 128.0 mg/kg/injection, schedule: Q01DX009 (ip), vehicle: saline) 90 % of control.

As for `O=C([CH-]C(=O)C(F)(F)F)c1ccccc1.O=C([CH-]C(=O)C(F)(F)F)c1ccccc1.O=C([CH-]C(=O)C(F)(F)F)c1ccccc1.O=C([CH-]C(=O)C(F)(F)F)c1ccccc1.[Eu+3].c1ccncc1`, the T/C by setting is: (dose: 12.5 mg/kg/injection, schedule: Q01DX009 (ip), vehicle: Klucel (hydroxypropylcellulose) (HPC)) 92 % of control and 96 % of control; (dose: 25.0 mg/kg/injection, schedule: Q01DX009 (ip), vehicle: Klucel (hydroxypropylcellulose) (HPC)) 88 % of control and 97 % of control; (dose: 50.0 mg/kg/injection, schedule: Q01DX009 (ip), vehicle: Klucel (hydroxypropylcellulose) (HPC)) 92 % of control and 101 % of control; under setting [1], 93 % of control and 98 % of control; under setting [2], 102 % of control and 107 % of control; under setting [3], 93 % of control and 98 % of control.

For the compound `CCOc1ccc(C2NC(=O)c3ccccc3N2)cc1` (stereo unspecified), the T/C reads like this: under setting [1], 105 % of control; under setting [2], 98 % of control; under setting [3], 94 % of control.

For `O=c1cc(-c2ccccc2)[nH]c(-c2ccccc2)c1`, the T/C is 95 % of control (dose: 8.0 mg/kg/injection, schedule: Q01DX009 (ip), vehicle: saline with Tween-80) and 97 % of control (dose: 18.0 mg/kg/injection, schedule: Q01DX009 (ip), vehicle: saline with Tween-80).

Turning to `C[CH2][Sn]([F])([CH2]C)[CH2]C`, the T/C is, setting by setting: (dose: 0.37 mg/kg/injection, schedule: Q01DX009 (ip), vehicle: saline with Tween-80) 104 % of control; (dose: 0.75 mg/kg/injection, schedule: Q01DX009 (ip), vehicle: saline with Tween-80) 109 % of control; (dose: 1.5 mg/kg/injection, schedule: Q01DX009 (ip), vehicle: saline with Tween-80) 102 % of control; (dose: 3.0 mg/kg/injection, schedule: Q01DX009 (ip), vehicle: saline with Tween-80) 94 % of control.

Consider `CCC/C=C/C=C\C(=O)O[C@@H]1[C@@H](C)[C@]2(O)[C@@H]3C=C(C)C(=O)[C@H]3CC(COC(C)=O)=C[C@H]2[C@@H]2C(C)(C)[C@]12OC(C)=O`, for which the T/C reads like this: (dose: 0.75 mg/kg/injection, schedule: Q01DX009 (ip), vehicle: saline + alcohol) 107 % of control; (dose: 1.5 mg/kg/injection, schedule: Q01DX009 (ip), vehicle: saline + alcohol) 105 % of control; (dose: 3.0 mg/kg/injection, schedule: Q01DX009 (ip), vehicle: saline + alcohol) 113 % of control; (dose: 6.0 mg/kg/injection, schedule: Q01DX009 (ip), vehicle: saline + alcohol) 113 % of control.

Regarding `CCCCCOC(CN)C(Cl)(Cl)Cl` (stereo unspecified), the T/C by setting is: under setting [4], 93 % of control; under setting [5], 100 % of control; under setting [6], 102 % of control.

Consider `CN(C)c1ccc2nc3ccc(=[N+](C)C)cc-3sc2c1`, for which the T/C by setting is: (dose: 6.25 mg/kg/injection, schedule: Q01DX009 (ip), vehicle: saline) 86 % of control; under setting [4], 93 % of control.

As for `CCc1ccccc1NC(=O)Nc1ccc(Cl)cc1`, the T/C is, setting by setting: (dose: 100.0 mg/kg/injection, schedule: Q01DX009 (ip), vehicle: gum acacia) 101 % of control; (dose: 200.0 mg/kg/injection, schedule: Q01DX009 (ip), vehicle: gum acacia) 97 % of control; (dose: 400.0 mg/kg/injection, schedule: Q01DX009 (ip), vehicle: gum acacia) 93 % of control.

With `Clc1nc2ccccc2nc1CI`, the T/C was 97 % of control (dose: 0.04 mg/kg/injection, schedule: Q01DX009 (ip), vehicle: saline with Tween-80); 97 % of control (dose: 0.08 mg/kg/injection, schedule: Q01DX009 (ip), vehicle: saline with Tween-80); 97 % of control (dose: 0.15 mg/kg/injection, schedule: Q01DX009 (ip), vehicle: saline with Tween-80); 92 % of control (dose: 0.3 mg/kg/injection, schedule: Q01DX009 (ip), vehicle: saline with Tween-80); 94 % of control (dose: 0.31 mg/kg/injection, schedule: Q01DX009 (ip), vehicle: saline with Tween-80); 91 % of control (dose: 0.62 mg/kg/injection, schedule: Q01DX009 (ip), vehicle: saline with Tween-80). Besides, the T/C was 100 % of control (dose: 1.25 mg/kg/injection, schedule: Q01DX009 (ip), vehicle: saline with Tween-80); 97 % of control (dose: 2.5 mg/kg/injection, schedule: Q01DX009 (ip), vehicle: saline with Tween-80); 88 % of control (dose: 5.0 mg/kg/injection, schedule: Q01DX009 (ip), vehicle: saline with Tween-80).

Take `CCC(=O)/C=C/C1C(C)=CCCC1(C)C` (stereo unspecified): the T/C is 104 % of control under setting [7] and 102 % of control (dose: 100.0 mg/kg/injection, schedule: Q01DX009 (ip), vehicle: saline with Tween-80).

As for `Cc1c(Cl)cccc1NC(=O)Nc1ccccc1Cl`, the T/C is, setting by setting: (dose: 75.0 mg/kg/injection, schedule: Q01DX009 (ip), vehicle: Klucel (hydroxypropylcellulose) (HPC)) 106 % of control; (dose: 150.0 mg/kg/injection, schedule: Q01DX009 (ip), vehicle: Klucel (hydroxypropylcellulose) (HPC)) 95 % of control.

Regarding `O=S(O)OS(=O)O`, the T/C reads like this: (dose: 50.0 mg/kg/injection, schedule: Q04DX003 (ip), vehicle: saline) 101 % of control; (dose: 100.0 mg/kg/injection, schedule: Q04DX003 (ip), vehicle: saline) 101 % of control; (dose: 200.0 mg/kg/injection, schedule: Q04DX003 (ip), vehicle: saline) 94 % of control.

Turning to `COc1ccc(S(=O)(=O)N=N/C=C2\C=CC=CN2O)cc1OC`, the T/C is, setting by setting: (dose: 6.25 mg/kg/injection, schedule: Q01DX009 (ip), vehicle: saline with Tween-80) 99 % of control; (dose: 12.5 mg/kg/injection, schedule: Q01DX009 (ip), vehicle: saline with Tween-80) 100 % of control; (dose: 25.0 mg/kg/injection, schedule: Q01DX009 (ip), vehicle: saline with Tween-80) 112 % of control; under setting [7], 112 % of control; (dose: 200.0 mg/kg/injection, schedule: Q01DX009 (ip), vehicle: saline with Tween-80) 161 % of control.

Turning to `O=c1[nH]cnc2ccc(Cl)cc12`, the T/C by setting is: (dose: 37.5 mg/kg/injection, schedule: Q01DX009 (ip), vehicle: saline with Tween-80) 102 % of control; (dose: 75.0 mg/kg/injection, schedule: Q01DX009 (ip), vehicle: saline with Tween-80) 102 % of control.
